Test results reported in patent US20210145730A1, “PROCESS FOR PREPARING AN ORAL DISINTEGRATING DOSAGE FORM” (Zeenar Enterprises Pty Ltd, priority 2017, published 2021).
Where a name gives a salt, the structure may show the parent alone. Read-outs that look alike come from different tables or passages of the source.

What was measured:
[1] = cited from earlier work
[2] = SAXS liquid crystalline phase formation for mixes of GMO and another ingredient immersed in PBS buffer (Example 1); format: physicochemical
Protocol: The samples were then mixed via a roller mixer at ˜10 RPM at 40° C. for at least 3 days. One week prior to SAXS experiment, 100 mg samples were loaded into a transparent polystyrene 96 well plate (Nunc™) and immersed in 200 μL of PBS buffer (pH 6.8). The samples were stored away from light at ambient temperature, to allow the samples to reach equilibrium. The SAXS/WAXS beamline at Australian Synchrotron, Melbourne, Australia was used to determine the liquid crystalline nanostructure in the samples. A custom-designed plate holder was used to mount the samples plate directly onto the SAXS/WAXS beamline. Scans were automated using a pre-loaded set of position variables based on the well positions within the plate, the exposure time was 5 sec. Data were obtained at ambient temperature (˜22° C.). […] The 2-D diffraction images were recorded on a Pilatus 1M detector and radially integrated using the in-house software “ScatterBrain”.

[3] = WO 2014/179845; cited from earlier work
porcine buccal mucosa = assay: In vitro release through porcine buccal mucosa in Ussing chamber; conditions: up to 4 hours, n=5
[4] = 1% w/w ingredient in mix with GMO
[5] = 5% w/w ingredient in mix with GMO
[6] = 20% and above w/w ingredient in mix with GMO

CNCC(O)c1ccc(O)c(O)c1 (centres unmarked) [Adrenaline]
logP [1]: −0.5 to −1.2

COc1ccc(O)c(C(C)(C)C)c1 [Butylated hydroxy anisole (BHA), Butylated hydroxy anisole]
Liquid crystalline phase formed [2, 4]: cubic
Liquid crystalline phase formed [2, 5]: cubic + hexagonal
Liquid crystalline phase formed ([2]; 10-20% w/w ingredient in mix with GMO): hexagonal
Liquid crystalline phase formed ([2]; 30% and above w/w ingredient in mix with GMO): reverse emulsion
Phase structure ([2]; Concentration in GMO 1%): V2(Pn3m)
Phase structure ([2]; Concentration in GMO 5%): V2(Pn3m) + H2

CC1CCC(C(C)C)C(O)C1 (centres unmarked) [Menthol]
Liquid crystalline phase formed [2, 4]: Cubic
Liquid crystalline phase formed ([2]; 1% w/w ingredient in mix with GMO, listed as menthol): cubic liquid crystalline structure
Liquid crystalline phase formed [2, 5]: hexagonal liquid crystalline structure
Liquid crystalline phase formed ([2]; 5-10% w/w ingredient in mix with GMO): Hexagonal
Liquid crystalline phase formed [2, 6]: Lamellar
Liquid crystalline phase formed ([2]; 20 to 50% ingredient directly mixed with GMO): reverse lamella crystalline structure
Phase structure ([2]; Concentration in GMO 1%): V2(Pn3m)

O=C(O)c1cccnc1 [Niacin]
logP [1]: 0.36
liquid crystalline phase formed by blend with GMO [3]: hexagonal phase

COc1ccc2c3c1O[C@H]1C(=O)CC[C@@]4(O)[C@@H](C2)N(C)CC[C@]314 [Oxycodone]
release characteristics (appearance of active ingredient in the receptor chamber over time) (porcine buccal mucosa): prolonged release profile with release continuing steadily at 4 hours

CC(C)c1nc(N(C)S(C)(=O)=O)nc(-c2ccc(F)cc2)c1/C=C/[C@@H](O)C[C@@H](O)CC(=O)O [Rosuvastatin, reference compound]
Liquid crystalline phase formed [2, 6]: Lamellar
Phase structure ([2]; Concentration in GMO 1%): V2(Pn3m)
Phase structure ([2]; Concentration in GMO 5%): V2(Pn3m)
Phase structure ([2]; Concentration in GMO 10%): V2(Pn3m)
Phase structure ([2]; Concentration in GMO 15%): V2(Pn3m) + V2(Im3m)
Phase structure ([2]; Concentration in GMO 20%): Lα
Phase structure ([2]; Concentration in GMO 35%): Lα + Lα
Phase structure ([2]; Concentration in GMO 50%): Lα
limit of inclusion before GMO is prevented from forming a cubic liquid crystalline structure ([2]; directly mixed with GMO, contact with hydrophilic solvent): 15%
Liquid crystalline phase formed ([2]; up to 15% w/w ingredient in mix with GMO): Cubic (2 types)
logP ([1]; at pH 5): 1.80 at pH 5
logP ([1]; at pH 7): 0.30 at pH 7

O=S(=O)([O-])NC1CCCCC1.[Na+] [Sodium cyclamate]
Liquid crystalline phase formed ([2]; 20% w/w ingredient in mix with GMO): lamellar
Liquid crystalline phase formed ([2]; 50% w/w ingredient in mix with GMO): lamellar + crystals
Phase structure ([2]; Concentration in GMO 1%): V2(Pn3m)
Phase structure ([2]; Concentration in GMO 5%): V2(Pn3m)
Phase structure ([2]; Concentration in GMO 10%): V2(Pn3m) + other
Phase structure ([2]; Concentration in GMO 20%): Lα (lamella)
Phase structure ([2]; Concentration in GMO 35%): Lα + other
Phase structure ([2]; Concentration in GMO 50%): Lα + other
Liquid crystalline phase formed ([2]; up to 10% w/w ingredient in mix with GMO): cubic

CCOC(=O)CC(O)(CC(=O)OCC)C(=O)OCC [Tri ethyl citrate (TEC), Tri ethyl citrate]
Liquid crystalline phase formed ([2]; 35% and above w/w ingredient in mix with GMO): reverse emulsion
Phase structure ([2]; Concentration in GMO 1%): V2(Pn3m) (ie
Phase structure ([2]; Concentration in GMO 5%): V2(Pn3m)
Phase structure ([2]; Concentration in GMO 10%): V2(Pn3m)
Phase structure ([2]; Concentration in GMO 20%): V2(Pn3m)
Liquid crystalline phase formed ([2]; up to 20% w/w ingredient in mix with GMO): cubic
